Test results reported in patent US10098889B2, “Complexes and salts of dihydropyrimidine derivatives and their application in pharmaceuticals” (SUNSHINE LAKE PHARMA CO., LTD., priority 2015, dated 2018).

Experiments:
Format in all cases: physicochemical
[1] = High temperature test (stability study)
Protocol: (§1) High temperature test: an appropriate amount of sample was put in a weighing bottle in the form of a thin layer of ≤5 mm, under a temperature of 60° C. for 10 days. Appearance, impurity and purity of the samples were tested respectively at the 5th and 10th day. […] If the sample has no significant change occurred at 60° C., it is not necessary to do the experiment under the condition of 40° C.
(§2) Experimental results of stability study of the compound of (S)-4-(((R)-6-(2-chloro-4-fluorophenyl)-5-(methoxycarbonyl)-2-(thiazol-2-yl)-3,6-dihydropyrimidin-4-yl)methyl)morpholine-3-carboxylic acid amorphous and the complex of (S)-4-(((R)-6-(2-chloro-4-fluorophenyl)-5-(methoxycarbonyl)-2-(thiazol-2-yl)-1,6-dihydropyrimidin-4-yl)methyl)morpholine-3-carboxylic acid and L-tartaric acid and its various salt forms under high temperature, high humidity and illumination conditions are shown in Table 4.

[2] = Experimental study of hygroscopicity; details: for Weighting percentage of moisture absorption (%): constant humidity
Protocol: A dry glass weighing bottle with a plug was placed in a suitable thermostatic drier at 25° C.±1° C. (ammonium chloride and saturated solution of ammonium sulfate were placed on the bottom) on the day before the experiment, and weighed precisely. The propriate amount of the sample was plated into the weighing bottle, wherein the thickness of the sample typically is about 1 mm, and weighed precisely (m2). The weighing bottle was open and placed with the plug in the above constant temperature and humidity condition for 24 hours. The capped weighing bottle was weighed precisely (m3), and the weight gain percentage was calculated (%).
Test method: according to the Ph. Eur. <5.11>; Ch. P. 2010; II appendix XIX J; Weighting percentage of moisture absorption (%)=(m3−m2)/(m2−m1)×100%
Hygroscopicity characteristics: weighting percentage of moisture absorption
Judgement of Hygroscopicity Result:
(1) Air slaking: absorbing enough water to form liquid
(2) Of quite hygroscopicity: not less than 15%
(3) Of hygroscopicity: less than 15% but not less 2%
(4) Of slight hygroscopicity: less than 2% but not less than 0.2%

[3] = Stability studies under high temperature, high humidity and illumination conditions (overall assessment); details: for Stability under high temperature, high humidity and illumination condition (in words): compared with amorphous compound (I)
Protocol: as §1
(§3) High humidity test: an appropriate amount of sample was put in a weighing bottle in the form of a thin layer of ≤5 mm, under a temperature of 25° C. for 10 days. Appearance, impurity and purity were tested respectively at the 5th and 10th day. If the moisture-absorption weight of the sample gains more than 5%, then the sample needs to be retested in the same manner under the conditions of 25° C. and RH75%±5%. If the moisture-absorption weight of the sample gains less than 5%, and other results meets the requirements, it is not necessary to do the experiment any more. (Note: the weighing bottle should be presaturated for one day by putting it into the humidistat (or a dryer containing a saturated solution of potassium nitrate) before high humidity test, then weighing the sample and weighing bottle together, and record the weight.)
(§4) Illumination test: an appropriate amount of sample was put in a weighing bottle in the form of a thin layer of ≤5 mm, under a […] for 13 days. Appearance, impurity and purity of the samples were tested respectively at the 5th and 13th day.

[4] = High humidity test (stability study); details: 25° C.
Protocol: as §3, §2

[5] = Illumination test (stability study)
Protocol: as §4, §2

Solubility (HPLC) = assay: Solubility (HPLC)
Protocol: The solubility disclosed herein was measured by Aglient 1200 high performance liquid chromatograph VWD detector. The chromatographic column model is Waters Xbridge-C18 (4.6×150 mm, […]). The detection wavelength was 250 nm, the flow rate was 1.0 mL/minute, the column temperature was 35° C., the mobile phase was acetonitrile water (v/v=40/60).

[6] = High temperature, 60° C., 5 days
[7] = High temperature, 60° C., 10 days

| SMILES | Appearance ([1]; 0 days) | Purity (%) ([1]; 0 days) | Total impurity (%) ([1]; 0 days) | Appearance [1, 6] | Purity (%) [1, 6] | Total impurity (%) [1, 6] | Appearance [1, 7] | Purity (%) [1, 7] | Total impurity (%) [1, 7] | Appearance ([4]; 5 days) | Purity (%) ([4]; 5 days) | Total impurity (%) ([4]; 5 days) | Appearance ([4]; 10 days) | Purity (%) ([4]; 10 days) | Total impurity (%) ([4]; 10 days) | Appearance ([5]; 5 days) | Purity (%) ([5]; 5 days) | Total impurity (%) ([5]; 5 days) | Appearance ([5]; 13 days) | Purity (%) ([5]; 13 days) | other results |
| --- | --- | --- | --- | --- | --- | --- | --- | --- | --- | --- | --- | --- | --- | --- | --- | --- | --- | --- | --- | --- | --- |
| COC(=O)C1=C(CN2CCOC[C@H]2C(=O)O)N=C(c2nccs2)N[C@H]1c1ccc(F)cc1Cl.O=C(O)C(O)C(O)C(=O)O [Complex of (S)-4-(((R)-6-(2-chloro-4-fluorophenyl)-5-(methoxycarbonyl)-2-(thiazol-2-yl)-1,6-dihydropyrimidin-4-yl)methyl)morpholine-3-carboxylic Acid and L-tartaric Acid] | yellow | 99.85% | 0.15% | yellow | 99.83% | 0.17% | yellow | 99.84% | 0.16% | yellow | 99.84% | 0.16% | yellow | 99.82% | 0.18% | yellow | 99.86% | 0.14% | yellow | 99.84% | oxide impurities ([1]; preparation purity, from Table 4): less than 0.2%; Hygroscopicity (in words) [2]: much smaller; Judgement of hygroscopicity result ([2]; 25° C.±1° C., 24 hours): of no or little hygroscopicity; Weighting percentage of moisture absorption (%) ([2]; 25° C.±1° C., 24 hours, listed as Crystalline form I(A) of the complex of compound (Ia) and L-tartaric acid): 0.029%; Weighting percentage of moisture absorption (%) ([2]; 25° C.±1° C., 24 hours, listed as crystalline form I(A) of the complex of compound (Ia) and L-tartaric acid): 0.029%; Stability under high temperature, high humidity and illumination condition (in words) [3]: best stability; Change of appearance and purity under high temperature, high humidity and illumination condition ([3]; listed as L-tartaric acid complex having crystalline form I(A)): basically unchanged; Change of appearance and purity under high temperature, high humidity and illumination condition ([3]; listed as complex formed from compound (I) and L-tartaric acid): unchanged substantially; Total impurity (%) ([5]; 13 days): 0.16%; Solubility (in words) (Solubility (HPLC)): good solubility |
| Br.COC(=O)C1=C(CN2CCOC[C@H]2C(=O)O)N=C(c2nccs2)N[C@H]1c1ccc(F)cc1Cl [(S)-4-(((R)-6-(2-chloro-4-fluorophenyl)-5-(methoxycarbonyl)-2-(thiazol-2-yl)-1,6-dihydropyrimidin-4-yl)methyl)morpholine-3-carboxylic Acid Hydrobromide] | yellow | 99.70% | 0.30% | yellow | 99.69% | 0.31% | yellow | 99.63% | 0.37% | yellow | 99.68% | 0.32% | yellow | 99.64% | 0.36% | yellow | 97.63% | 2.37% | yellow | 96.06% | Stability under high temperature, high humidity and illumination condition (in words) [3]: better stability; Total impurity (%) ([5]; 13 days): 3.94% |
| COC(=O)C1=C(CN2CCOC[C@H]2C(=O)O)NC(c2nccs2)=N[C@H]1c1ccc(F)cc1Cl [(S)-4-(((R)-6-(2-chloro-4-fluorophenyl)-5-(methoxycarbonyl)-2-(thiazol-2-yl)-3,6-dihydropyrimidin-4-yl)methyl)morpholine-3-carboxylic Acid] | a yellow | 97.54% | 2.46% | a yellow | 96.99% | 3.01% | a yellow | 95.65% | 4.35% | a yellow | 97.51% | 2.49% | a yellow | 97.42% | 2.58% | a yellow | 93.72% | 6.28% | a yellow | 90.56% | Hygroscopicity (in words) [2]: certain hygroscopicity; Weighting percentage of moisture absorption (%) ([2]; 25° C.±1° C., 24 hours, listed as Compound (I) prepared by Example 1): 1.441%; Weighting percentage of moisture absorption (%) ([2]; 25° C.±1° C., 24 hours, listed as compound (I)): 1.441%; Total impurity (%) ([5]; 13 days): 9.44% |
| COC(=O)C1=C(CN2CCOC[C@H]2C(=O)O)N=C(c2nccs2)N[C@H]1c1ccc(F)cc1Cl.Cl [(S)-4-(((R)-6-(2-chloro-4-fluorophenyl)-5-(methoxycarbonyl)-2-(thiazol-2-yl)-1,6-dihydropyrimidin-4-yl)methyl)morpholine-3-carboxylic Acid Hydrochloride] | yellow | 99.63% | 0.37% | yellow | 99.63% | 0.37% | yellow | 99.43% | 0.57% | yellow | 99.65% | 0.35% | yellow | 99.59% | 0.41% | yellow | 97.59% | 2.41% | yellow | 97.47% | Stability under high temperature, high humidity and illumination condition (in words) [3]: better stability; Total impurity (%) ([5]; 13 days): 2.53% |
